# Results taken from ChEMBL document CHEMBL1201862, “PubChem BioAssay data set” (2004).
# Active and inactive are the calls of the source.
# Legend:
# [1] = Trypanosoma cruzi growth suppression in host cells – NIH3T3 host cells, beta-gal luminescence, confirmation (AID 2044); format: functional, cell-based;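 also: intracellular parasites grown in NIH/3T3 mouse fibroblasts as host cells; luminescent beta-galactosidase reporter signal from transgenic T. cruzi replicating inside host cells; inhibitors lower the luminescence signal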
# [2] = NIH3T3 cell viability loss – ATP luminescence, mouse fibroblasts, counter-screen, dose response (AID 2010); format: functional, cell-based;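 also: cells exposed to compound for about 90 hours before reading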
# [3] = Luminescence Cell-Based Dose Retest to Confirm Inhibitors of Cancer Stem Cells. [Related pubchem assays (depositor defined):AID2717, AID2721]; format: functional; conditions: Homo sapiens
# [4] = molecular target: DNA repair protein RAD52 homolog (Homo sapiens, UniProt P43351); format: functional, biochemical
# [5] = HGIII-sPLA2 enzyme inhibition potency – biochemical, QFRET, IC50, dose response (AID 743457);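 also: green fluorescence rise as the enzyme cleaves BODIPY PC-A2 in liposomes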
# Steroidogenic factor 1 = Steroidogenic factor 1 (Homo sapiens, UniProt Q13285); experiment: Counterscreen for inverse agonists of the liver receptor homolog-1 (LRH-1; NR5A2): Luminescence-based cell-based high throughput dose response assay to identify inverse agonists of the Steroidogenic Factor 1 Nuclear Receptor (SF1; NR5A1).; format: functional
# [6] = nonselective StAR promoter luciferase inhibitors – cell-based, luminescence, luciferase reporter, counter-screen for LRH-1 inverse agonist project, dose response (AID 651969); format: functional
# [7] = molecular target: Nuclear receptor subfamily 5 group A member 2 (Homo sapiens, UniProt O00482); format: functional, cell-based;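 also: HEK293T cells transfected with LRH-1 and a StAR promoter luciferase reporter; potency for inhibitors that lower LRH-1 driven reporter light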
# Melanocortin receptor 4 = Melanocortin receptor 4 (Homo sapiens, UniProt P32245); format: functional, cell-based;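 also: Cell-based assay with luminescence read-out, confirmatory dose-response testing for agonist activity of biased ligands at MC4R; human U2OS cells with tagged receptor and beta-arrestin; potency of agonists that increase receptor coupling to beta-arrestin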
# Beta-galactosidase [8] = molecular target: T1, Beta-galactosidase (Escherichia coli, UniProt Q8VNN2); experiment: Dose response counterscreen for EBI2 assay utilizing the enzyme, b-galactosidase.; format: functional
# [9] = molecular target: Botulinum neurotoxin type F (Clostridium botulinum, UniProt P30996); experiment: High-throughput multiplex microsphere dose response for inhibitors of toxin protease, specifically Botulinum neurotoxin light chain F protease, compounds from Cherry Pick 02.; format: functional; conditions: read-out: EC50_MICROM
# [10] = molecular target: T2, Trace amine-associated receptor 1 (Homo sapiens, UniProt Q96RJ0); experiment: Fluorescence-based cell-based high throughput dose response assay to identify agonists of the human trace amine associated receptor 1 (TAAR1).; format: functional
# T2 sequence (Q96RJ0 whole entry): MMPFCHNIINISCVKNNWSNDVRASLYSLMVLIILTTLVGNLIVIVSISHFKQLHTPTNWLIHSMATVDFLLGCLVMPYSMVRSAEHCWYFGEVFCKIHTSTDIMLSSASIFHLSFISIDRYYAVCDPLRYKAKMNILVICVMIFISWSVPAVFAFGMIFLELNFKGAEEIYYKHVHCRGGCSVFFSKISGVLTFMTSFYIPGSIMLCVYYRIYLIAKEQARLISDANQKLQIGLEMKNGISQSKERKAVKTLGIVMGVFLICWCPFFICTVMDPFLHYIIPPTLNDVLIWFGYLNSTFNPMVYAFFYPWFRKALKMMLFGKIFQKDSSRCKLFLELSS
# [11] = molecular target: T2, Trace amine-associated receptor 1; experiment: Counterscreen for agonists of the human trace amine associated receptor 1 (hTAAR1): Fluorescence-based cell-based high throughput dose response assay to identify hTAAR1 agonist that also desensitize TAAR1 receptor response.; format: functional
# cells [12] = format: functional, cell-based
# cells [13] = format: functional, cell-based; remark: listed apart in the source
# [14] = molecular target: Nuclear receptor subfamily 0 group B member 1 (Homo sapiens, UniProt P51843); format: functional, cell-based;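 also: HEK293T cells transfected with SF-1 and DAX-1 plus StAR promoter luciferase reporter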
# cells [15] = format: functional, cell-based; remark: listed apart in the source
# [16] = molecular target: Fructose-bisphosphate aldolase (Mycobacterium tuberculosis, UniProt P9WQA3); experiment: Fluorescence-based biochemical high throughput dose response assay for inhibitors of the fructose-bisphosphate aldolase (FBA) of M. tuberculosis.; format: functional
# [17] = molecular target: T3, Delta-type opioid receptor (Homo sapiens, UniProt P41143); experiment: HTS Image-Based Screen for Agonists of the DOR Receptor. [Related pubchem assays (depositor defined):AID1777, AID1786, AID2133]; format: functional
# Beta-galactosidase [18] = molecular target: T1, Beta-galactosidase; format: functional
# [19] = molecular target: SWI/SNF-related matrix-associated actin-dependent regulator of chromatin subfamily A member 2 (Homo sapiens, UniProt P51531); experiment: Luminescence-based cell-based high throughput dose response assay to identify activators of the function of SWI/SNF related, matrix associated, actin dependent regulator of chromatin, subfamily a, member 2 (SMARCA2, BRM).; format: functional
# Mu-type opioid receptor = Mu-type opioid receptor (Homo sapiens, UniProt P35372); experiment: HTS Image-Based Screen for Agonists of the MOR Receptor. [Related pubchem assays (depositor defined):AID1777, AID1785, AID1786, AID2133]; format: functional;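 also: imaging of beta-arrestin GFP recruitment into spots after receptor activation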
# [20] = molecular target: T3, Delta-type opioid receptor; experiment: HTS Image-Based Screen for Antagonists of the DOR Receptor. [Related pubchem assays (depositor defined):AID1777, AID1785, AID1786, AID2133]; format: functional
# [21] = Counterscreen for activators of the function of SWI/SNF related, matrix associated, actin dependent regulator of chromatin, subfamily a, member 2 (SMARCA2, BRM): Luminescence-based cell-based high throughput dose response assay to identify non-selective compounds using the VP16 reporter assay.; format: functional
# [22] = molecular target: T4, Kappa-type opioid receptor (Homo sapiens, UniProt P41145); format: functional
# [23] = molecular target: T4, Kappa-type opioid receptor; format: functional; remark: listed apart in the source
# [24] = potency of ADAM10 substrate cleavage blockers – biochemical, QFRET, dose response (AID 743254);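 also: ADAM10 enzyme with the DM2 quenched FRET peptide as substrate; EDANS fluorescence gain as the protease cuts the substrate; inhibitor potency against ADAM10 proteolytic activity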
# [25] = molecular target: Disintegrin and metalloproteinase domain-containing protein 17 (Homo sapiens, UniProt P78536); experiment: inhibition of ADAM17 substrate cleavage – biochemical, quenched FRET substrate, counter-screen for ADAM10 exosite inhibitor project, dose response (AID 743253)
# T3 sequence (P41143 whole entry): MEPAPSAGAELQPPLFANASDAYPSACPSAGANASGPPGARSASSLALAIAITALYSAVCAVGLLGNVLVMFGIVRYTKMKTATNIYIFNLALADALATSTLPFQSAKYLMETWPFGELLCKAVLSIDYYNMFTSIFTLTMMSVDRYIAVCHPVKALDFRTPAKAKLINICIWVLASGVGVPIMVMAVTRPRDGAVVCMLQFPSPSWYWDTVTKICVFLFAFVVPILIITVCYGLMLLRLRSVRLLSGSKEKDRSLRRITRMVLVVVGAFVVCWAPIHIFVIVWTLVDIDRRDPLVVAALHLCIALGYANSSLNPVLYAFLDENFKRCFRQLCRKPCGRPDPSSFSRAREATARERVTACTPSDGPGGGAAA
# T4 sequence (P41145 whole entry): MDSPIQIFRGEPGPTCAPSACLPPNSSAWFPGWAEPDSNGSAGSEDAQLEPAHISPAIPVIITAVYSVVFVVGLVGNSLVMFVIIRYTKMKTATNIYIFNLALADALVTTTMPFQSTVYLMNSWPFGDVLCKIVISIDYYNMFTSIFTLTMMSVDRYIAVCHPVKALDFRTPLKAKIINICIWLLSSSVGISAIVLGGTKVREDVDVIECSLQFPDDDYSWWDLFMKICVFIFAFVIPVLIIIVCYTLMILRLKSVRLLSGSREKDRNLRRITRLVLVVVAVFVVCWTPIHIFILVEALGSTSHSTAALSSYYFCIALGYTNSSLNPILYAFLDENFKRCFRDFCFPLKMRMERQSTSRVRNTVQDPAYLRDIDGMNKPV
# T1 sequence (Q8VNN2 whole entry): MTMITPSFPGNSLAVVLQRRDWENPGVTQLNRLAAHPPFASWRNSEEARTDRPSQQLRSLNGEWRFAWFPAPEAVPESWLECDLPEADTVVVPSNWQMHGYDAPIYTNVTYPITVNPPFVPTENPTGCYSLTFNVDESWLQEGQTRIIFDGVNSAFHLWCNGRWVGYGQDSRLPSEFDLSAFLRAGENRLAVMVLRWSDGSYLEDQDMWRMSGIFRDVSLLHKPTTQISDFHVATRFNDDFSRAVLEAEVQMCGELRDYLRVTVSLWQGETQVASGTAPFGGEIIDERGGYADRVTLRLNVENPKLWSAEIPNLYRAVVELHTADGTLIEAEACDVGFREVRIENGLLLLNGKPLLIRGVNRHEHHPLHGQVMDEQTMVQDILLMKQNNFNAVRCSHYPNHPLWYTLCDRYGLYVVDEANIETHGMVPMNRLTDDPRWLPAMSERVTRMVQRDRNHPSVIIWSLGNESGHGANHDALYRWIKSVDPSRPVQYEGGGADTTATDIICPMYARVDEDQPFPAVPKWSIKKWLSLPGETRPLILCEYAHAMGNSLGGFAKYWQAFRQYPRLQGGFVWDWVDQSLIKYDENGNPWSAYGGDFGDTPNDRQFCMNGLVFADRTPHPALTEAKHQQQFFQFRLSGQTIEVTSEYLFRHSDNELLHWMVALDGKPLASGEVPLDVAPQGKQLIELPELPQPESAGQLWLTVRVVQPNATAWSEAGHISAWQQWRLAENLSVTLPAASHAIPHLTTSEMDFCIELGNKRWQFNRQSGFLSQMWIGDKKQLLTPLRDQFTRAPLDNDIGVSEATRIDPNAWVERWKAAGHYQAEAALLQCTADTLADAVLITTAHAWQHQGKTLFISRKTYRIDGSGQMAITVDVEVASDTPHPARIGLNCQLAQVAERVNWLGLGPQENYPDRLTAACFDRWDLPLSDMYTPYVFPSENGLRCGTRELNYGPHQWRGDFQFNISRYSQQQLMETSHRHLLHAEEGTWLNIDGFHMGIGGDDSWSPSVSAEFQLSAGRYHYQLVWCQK
# Nuclear receptor subfamily 5 group A member 2, sequence (O00482 whole entry): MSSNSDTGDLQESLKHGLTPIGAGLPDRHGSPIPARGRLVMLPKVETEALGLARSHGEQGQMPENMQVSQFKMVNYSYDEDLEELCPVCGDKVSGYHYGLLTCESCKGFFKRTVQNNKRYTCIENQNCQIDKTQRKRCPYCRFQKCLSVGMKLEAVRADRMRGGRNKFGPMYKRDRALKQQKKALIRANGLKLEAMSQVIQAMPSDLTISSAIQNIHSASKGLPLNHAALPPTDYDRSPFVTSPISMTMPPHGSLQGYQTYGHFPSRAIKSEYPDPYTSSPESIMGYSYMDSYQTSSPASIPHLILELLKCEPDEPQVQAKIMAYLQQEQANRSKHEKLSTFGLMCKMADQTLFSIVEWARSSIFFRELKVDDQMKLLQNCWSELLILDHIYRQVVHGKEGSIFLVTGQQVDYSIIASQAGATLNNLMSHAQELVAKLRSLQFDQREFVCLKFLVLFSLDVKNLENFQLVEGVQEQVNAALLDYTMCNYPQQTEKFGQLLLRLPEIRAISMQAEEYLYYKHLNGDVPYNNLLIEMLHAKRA
# SWI/SNF-related matrix-associated actin-dependent regulator of chromatin subfamily A member 2, sequence (P51531 whole entry): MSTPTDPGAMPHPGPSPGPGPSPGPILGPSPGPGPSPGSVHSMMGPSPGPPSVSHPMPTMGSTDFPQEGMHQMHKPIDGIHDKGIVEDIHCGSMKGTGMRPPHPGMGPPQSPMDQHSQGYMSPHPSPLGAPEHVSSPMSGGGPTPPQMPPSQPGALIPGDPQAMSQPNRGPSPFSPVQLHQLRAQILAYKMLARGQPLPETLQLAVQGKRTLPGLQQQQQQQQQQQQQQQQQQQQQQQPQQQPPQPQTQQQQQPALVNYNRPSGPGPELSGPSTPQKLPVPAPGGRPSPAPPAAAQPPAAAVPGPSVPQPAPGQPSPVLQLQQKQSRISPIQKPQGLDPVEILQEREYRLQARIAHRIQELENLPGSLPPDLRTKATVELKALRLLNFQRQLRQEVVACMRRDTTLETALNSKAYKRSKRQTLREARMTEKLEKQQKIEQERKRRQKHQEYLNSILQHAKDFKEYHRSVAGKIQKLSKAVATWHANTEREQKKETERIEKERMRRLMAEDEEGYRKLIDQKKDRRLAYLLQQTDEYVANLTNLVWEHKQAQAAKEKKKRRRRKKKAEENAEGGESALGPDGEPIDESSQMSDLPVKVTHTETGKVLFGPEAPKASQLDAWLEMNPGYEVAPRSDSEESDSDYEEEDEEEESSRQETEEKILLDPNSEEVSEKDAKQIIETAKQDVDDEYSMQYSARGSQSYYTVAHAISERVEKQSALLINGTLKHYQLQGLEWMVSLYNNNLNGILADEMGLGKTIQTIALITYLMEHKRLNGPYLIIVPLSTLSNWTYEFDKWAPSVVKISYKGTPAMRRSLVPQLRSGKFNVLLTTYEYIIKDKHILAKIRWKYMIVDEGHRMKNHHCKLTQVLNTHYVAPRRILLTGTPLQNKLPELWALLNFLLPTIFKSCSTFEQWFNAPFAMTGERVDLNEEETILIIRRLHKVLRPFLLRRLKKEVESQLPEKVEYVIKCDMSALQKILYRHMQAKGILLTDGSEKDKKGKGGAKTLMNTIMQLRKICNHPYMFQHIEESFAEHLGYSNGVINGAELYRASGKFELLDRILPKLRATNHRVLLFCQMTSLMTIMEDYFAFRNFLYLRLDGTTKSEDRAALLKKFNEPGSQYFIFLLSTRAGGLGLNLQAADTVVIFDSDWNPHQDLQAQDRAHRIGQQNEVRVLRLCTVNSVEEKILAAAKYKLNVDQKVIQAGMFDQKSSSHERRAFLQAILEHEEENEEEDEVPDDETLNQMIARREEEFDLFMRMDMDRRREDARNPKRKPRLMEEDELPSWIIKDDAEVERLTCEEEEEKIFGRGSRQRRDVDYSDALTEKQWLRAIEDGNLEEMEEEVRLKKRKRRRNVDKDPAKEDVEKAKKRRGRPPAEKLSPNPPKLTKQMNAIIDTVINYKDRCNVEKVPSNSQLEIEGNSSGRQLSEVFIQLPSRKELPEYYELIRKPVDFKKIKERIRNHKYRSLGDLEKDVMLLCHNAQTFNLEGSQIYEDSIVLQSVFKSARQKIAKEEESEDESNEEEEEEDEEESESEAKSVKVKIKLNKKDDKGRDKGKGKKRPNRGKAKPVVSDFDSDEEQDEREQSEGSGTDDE
# Fructose-bisphosphate aldolase, sequence (P9WQA3 whole entry): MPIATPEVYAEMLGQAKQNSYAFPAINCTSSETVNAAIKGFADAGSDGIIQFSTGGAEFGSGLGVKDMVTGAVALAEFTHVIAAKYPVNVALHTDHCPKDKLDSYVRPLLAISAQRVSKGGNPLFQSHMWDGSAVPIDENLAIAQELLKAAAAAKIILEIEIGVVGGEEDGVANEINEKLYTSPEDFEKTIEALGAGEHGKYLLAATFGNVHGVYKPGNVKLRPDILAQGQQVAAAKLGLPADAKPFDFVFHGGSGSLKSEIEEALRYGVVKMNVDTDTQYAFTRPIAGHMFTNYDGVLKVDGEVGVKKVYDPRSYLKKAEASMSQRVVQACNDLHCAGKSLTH
# Mu-type opioid receptor, sequence (P35372 whole entry): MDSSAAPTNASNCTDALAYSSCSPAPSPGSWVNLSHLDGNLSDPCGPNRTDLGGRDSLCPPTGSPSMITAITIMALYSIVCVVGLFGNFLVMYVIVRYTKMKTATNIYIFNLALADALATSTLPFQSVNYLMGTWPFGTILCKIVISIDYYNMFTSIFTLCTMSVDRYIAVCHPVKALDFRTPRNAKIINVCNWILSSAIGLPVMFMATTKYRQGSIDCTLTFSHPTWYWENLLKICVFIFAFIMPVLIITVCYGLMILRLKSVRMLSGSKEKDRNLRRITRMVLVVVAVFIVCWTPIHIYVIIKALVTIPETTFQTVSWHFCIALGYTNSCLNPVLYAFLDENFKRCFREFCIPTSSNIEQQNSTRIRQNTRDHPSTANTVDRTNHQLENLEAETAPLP
# Melanocortin receptor 4, sequence (P32245 whole entry): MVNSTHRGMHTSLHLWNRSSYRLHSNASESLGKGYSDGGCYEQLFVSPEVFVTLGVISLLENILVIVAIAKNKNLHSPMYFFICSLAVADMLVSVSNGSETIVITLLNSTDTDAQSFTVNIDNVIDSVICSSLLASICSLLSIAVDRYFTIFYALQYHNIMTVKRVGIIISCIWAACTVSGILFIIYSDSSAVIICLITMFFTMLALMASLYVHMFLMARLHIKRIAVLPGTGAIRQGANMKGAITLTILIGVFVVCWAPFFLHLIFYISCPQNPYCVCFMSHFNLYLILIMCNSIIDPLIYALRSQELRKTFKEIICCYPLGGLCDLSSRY
structure (smiles),measurement,setting,value
Cc1cc(N2CCN(C)CC2)nc2ccc(NC(S)=NCCC(C)C)cc12,EC50,[1],0.746 µM (active)
same,EC50,[2],8.05 µM (active)
same,AC50,[3],1.24 µM (active)
same,AC50,[4],28.2 µM (active)
Nc1cc(N)c2c(c1)C(=O)c1ccccc1-2,IC50,[5],> 122 µM (inactive)
CCCc1cc(=O)oc2cc(OCC(=O)NCCc3ccc(S(N)(=O)=O)cc3)ccc12,IC50,Steroidogenic factor 1,7.47 µM (active)
same,IC50,[6],35.9 µM (inactive)
same,IC50,[7],35.9 µM (inactive)
CC(=O)Nc1cc(-c2ccc(N(C)C)cc2)cn2c(-c3ccc(F)cc3)cnc12,EC50,Melanocortin receptor 4,> 9.91 µM (active)
same,IC50,Beta-galactosidase [8],> 80 µM (inactive)
COc1ccccc1C(CNC(=O)c1ccc(C)c(S(=O)(=O)N2CCCCC2)c1)N1CCCC1 (centres undefined),EC50,[9],> 20 µM (inactive)
COC(=O)[C@]12CCCCC=C1N(Cc1ccccc1)C(=O)[C@H](CC(=O)NCCc1ccccc1OC)C2,EC50,[10],2.49 µM (active)
same,IC50,[11],4.83 µM (active)
same,IC50,cells [12],27.7 µM (inactive)
same,EC50,cells [13],> 29.9 µM (inactive)
CCOc1ccc(NC(=O)c2ccc3c(c2)N(C)CCS3)cc1,IC50,[14],> 67.6 µM (inactive)
same,IC50,cells [15],> 67.6 µM (inactive)
C(=C\c1ccc2nncn2c1)/c1ccccc1,IC50,[16],1.45 µM (active)
COc1ccc(-c2cc(=O)n(-c3nc4ccccc4[nH]3)[nH]2)cc1,EC50,[17],> 32 µM (inactive)
same,EC50,Beta-galactosidase [18],> 31.5 µM (inactive)
same,EC50,[19],> 91.2 µM (inactive)
same,EC50,Mu-type opioid receptor,> 32 µM (inactive)
same,IC50,[20],> 32 µM (inactive)
same,EC50,[21],> 91.2 µM (inactive)
same,IC50,[22],> 32 µM
same,IC50,[23],9.08 µM (active)
CCN(CC)c1ccc(NC(=O)CSc2nc3ccccc3c(=O)n2-c2ccc(C)cc2)cc1,IC50,[5],60.3 µM (inactive)
same,IC50,[24],> 69.5 µM (inactive)
same,IC50,[25],> 69.5 µM (inactive)
